From US9802895B2, “Indole and benzimidazolecarboxamides as insecticides and acaricides” (BAYER CROPSCIENCE AKTIENGESELLSCHAFT, priority 2014, dated 2017)

Key:
[1] = system: L1 larvae of the Australian sheep blowfly (Lucilia cuprina); assay: Lucilia cuprina test (LUCICU); type: in vivo; conditions: 100 ppm, after 2 days
Procedure: Lucilia cuprina Test (LUCICU) Solvent: dimethyl sulphoxide To produce a suitable active compound formulation, 10 mg of active compound are mixed with 0.5 ml of dimethyl sulphoxide, and the concentrate is diluted with water to the desired concentration. About 20 L1 larvae of the Australian sheep blowfly (Lucilia cuprina) are transferred into a test vessel containing minced horsemeat and the active compound preparation of the desired concentration. After 2 days, the kill in % is determined 100% means that all the larvae have been killed; 0% means that none of the larvae have been killed.

[2] = system: caterpillars of the armyworm (Spodoptera frugiperda); assay: Spodoptera frugiperda spray test (SPODFR); type: in vivo; conditions: for efficacy: 100 g/ha, spray, after 7 days; for % efficacy: SPODFR, 7 dat
Procedure: Spodoptera frugiperda—Spray Test (SPODFR) Solvent: 78.0 parts by weight of acetone • • 1.5 parts by weight of dimethylformamide Emulsifier: alkylaryl polyglycol ether To produce a suitable active compound formulation, 1 part by weight of active compound is dissolved using the specified parts by weight of solvent and made up with water containing an emulsifier concentration of 1000 ppm until the desired concentration is attained. To produce further test concentrations, the preparation is diluted with emulsifier-containing water. Leaf discs of maize (Zea mays) are sprayed with an active compound formulation of the desired concentration and, after drying, populated with caterpillars of the armyworm (Spodoptera frugiperda). After 7 days, the efficacy in % is determined 100% means that all the caterpillars have been killed; 0% means that no caterpillars have been killed. Spodoptera frugiperda—Spray Test (SPODFR) Solvent: 78.0 parts by weight of acetone • • 1.5 parts by weight of dimethylformamide Emulsifier: alkylaryl polyglycol ether To produce a suitable active compound formulation, 1 part by weight of active compound is dissolved using the specified parts by weight of solvent and made up with water containing an emulsifier concentration of 1000 ppm until the desired concentration is attained. To produce further test concentrations, the preparation is diluted with emulsifier-containing water. Leaf discs of maize (Zea mays) are sprayed with an active compound formulation of the desired concentration and, after drying, populated with caterpillars of the armyworm (Spodoptera frugiperda). After the desired period of time, the efficacy in % is determined. 100% means that all the caterpillars have been killed; 0% means that no caterpillars have been killed.

[3] = system: adult houseflies (Musca domestica); assay: Musca domestica test (MUSCDO); type: in vivo; conditions: 100 ppm, after 2 days
Procedure: Musca domestica Test (MUSCDO) Solvent: dimethyl sulphoxide To produce a suitable active compound formulation, 10 mg of active compound are mixed with 0.5 ml of dimethyl sulphoxide, and the concentrate is diluted with water to the desired concentration. Vessels containing a sponge treated with sugar solution and the active compound preparation of the desired concentration are populated with 10 adult houseflies (Musca domestica). After 2 days, the kill in % is determined. 100% means that all of the flies have been killed; 0% means that none of the flies have been killed.

[4] = system: greenhouse red spider mite (Tetranychus urticae); assay: Tetranychus urticae spray test, OP-resistant (TETRUR); type: in vivo; conditions: for efficacy: 100 g/ha, spray, after 6 days; for % efficacy: TETRUR, 6 dat
Procedure: Tetranychus urticae—Spray Test, OP-Resistant (TETRUR)
(§1) Solvent: 78.0 parts by weight of acetone • • 1.5 parts by weight of dimethylformamide
(§2) Emulsifier: alkylaryl polyglycol ether
(§3) To produce a suitable active compound formulation, 1 part by weight of active compound is dissolved using the specified parts by weight of solvent and made up with water containing an emulsifier concentration of 1000 ppm until the desired concentration is attained. To produce further test concentrations, the preparation is diluted with emulsifier-containing water.
Discs of bean leaves (Phaseolus vulgaris) infested by all stages of the greenhouse red spider mite (Tetranychus urticae) are sprayed with an active compound formulation of the desired concentration.
After 6 days, the efficacy in % is determined 100% means that all the spider mites have been killed; 0% means that none of the spider mites have been killed.
Tetranychus urticae—Spray Test; OP-Resistant (TETRUR)
After the desired period of time, the efficacy in % is determined 100% means that all the spider mites have been killed; 0% means that none of the spider mites have been killed.

[5] = system: adult cat fleas (Ctenocephalides felis); assay: Ctenocephalides felis oral test (CTECFE); type: in vivo; conditions: 100 ppm, oral in cattle blood, after 2 days
Procedure: Ctenocephalides felis-Oral Test ([…]) Solvent: dimethyl sulphoxide To produce a suitable active compound formulation, 10 mg of active compound are mixed with 0.5 ml of dimethyl sulphoxide. Dilution with citrated cattle blood gives the desired concentration. About 20 unfed adult cat fleas (Ctenocephalides felis) are placed into a chamber which is closed at the top and bottom with gauze. A metal cylinder whose bottom end is closed with parafilm is placed onto the chamber. The cylinder contains the blood/active compound preparation, which can be imbibed by the fleas through the parafilm membrane. After 2 days, the kill in % is determined 100% means that all of the fleas have been killed; 0% means that none of the fleas have been killed.

[6] = system: larvae of the mustard beetle (Phaedon cochleariae); assay: Phaedon cochleariae spray test (PHAECO); type: in vivo; conditions: 100 g/ha, after 7 days
Procedure: Phaedon cochleariae—Spray Test (PHAECO)
as §1, §2, §3
After 7 days, the efficacy in % is determined. 100% means that all the beetle larvae have been killed; 0% means that no beetle larvae have been killed.

[7] = system: engorged adult female cattle ticks (Boophilus microplus); assay: Boophilus microplus injection test (BOOPMI inj); type: in vivo; conditions: assessed after 7 days
Procedure: Boophilus microplus Injection Test (BOOPMI inj) Solvent: dimethyl sulphoxide To produce a suitable active compound formulation, 10 mg of active compound are mixed with 0.5 ml of solvent and the concentrate is diluted with solvent to the desired concentration. 1 μl of the active compound solution is injected into the abdomen of 5 engorged adult female cattle ticks (Boophilus microplus). The animals are transferred into dishes and kept in a climate-controlled room. The efficacy is assessed after 7 days by laying of fertile eggs. Eggs which are not visibly fertile are stored in a climate-controlled cabinet until the larvae hatch after about 42 days. An efficacy of 100% means that none of the ticks has laid any fertile eggs; 0% means that all the eggs are fertile.

[8] = log P by HPLC (EEC directive 79/831 Annex V.A8); type: physicochemical; conditions: HPLC, reversed-phase column (C18), 43° C., acidic range pH 2.7
Procedure: a) The determination of the M^+ by LC-MS in the acidic range is effected at pH 2.7, acetonitrile (contains 0.1% formic acid) and water as eluents; linear gradient from 10% acetonitrile to 95% acetonitrile, instrument: Agilent 1100 LC system, Agilent MSD system, HTS PAL. The log P values reported in the tables and Preparation Examples above were determined in accordance with EEC directive 79/831 Annex V.A8 by HPLC (High Performance Liquid Chromatography) using a reversed-phase column (C18). Temperature 43° C. The calibration is effected with unbranched alkan-2-ones (having 3 to 16 carbon atoms), for which the logP values are known.

[9] = system: L2 larvae of the banded cucumber beetle (Diabrotica balteata); assay: Diabrotica balteata drench test (DIABBA); type: in vivo; conditions: 8 dat
Procedure: Diabrotica balteata—Drench Test (DIABBA) Solvent: 7 parts by weight of dimethylformamide Emulsifier: 2 parts by weight of alkylaryl polyglycol ether To produce a suitable active compound formulation, 1 part by weight of active compound is mixed with the specified amounts of solvent and emulsifier, and the concentrate is diluted with water to the desired concentration, it being necessary to include the volume of soil which is drenched in the calculation. It should be ensured that a concentration of 40 ppm of emulsifier in the soil is not exceeded. To produce further test concentrations, water is used for dilution. […] After one day, 25 L2 larvae of the banded cucumber beetle (Diabrotica balteata) are added. After 8 days, the efficacy in % is determined 100% means that all 5 plants have germinated and grown; 0% means that none of the plants has emerged.

Compound | efficacy (kill in %) [1] [%] | efficacy [2] [%] | % efficacy ([2]; 0.8 g/ha) [%] | % efficacy ([2]; 4 g/ha) [%] | efficacy (kill in %) [3] [%] | efficacy [4] [%] | efficacy (kill in %) [5] [%] | efficacy [6] [%] | efficacy (laying of fertile eggs) [7] [%] | log P [8] | % efficacy ([4]; 4 g/ha) [%] | % efficacy ([4]; 20 g/ha) [%] | % efficacy ([9]; 4 ppm) [%] | % efficacy ([9]; 20 ppm) [%]
CCn1c(C(=O)NC(c2ccc(F)c(C(F)(F)F)c2)C(F)(F)F)cc2cc(C(=O)NC3(C(N)=S)CC3)c(Cl)cc21 (centres unmarked) [I-03] | 100 | 100 | 100 | 100 | 100 | 90 | 100 | 100 | 100 | 3.70 | – | – | – | –
CCn1c(C(=O)NC(c2cc(Cl)cc(Cl)c2)C(F)F)cc2cc(C(=O)NC3(C(N)=S)CC3)c(Cl)cc21 (centres unmarked) [I-24] | 100 | 100 | – | – | 80 | 100 | 100 | 100 | 100 | 3.65 | – | – | – | –
CCn1c(C(=O)NC(c2ccc(Cl)c(C(F)(F)F)c2)C(F)(F)F)cc2cc(C(=O)NC3(C(N)=S)CC3)c(Cl)cc21 (centres unmarked) [I-07] | 100 | 100 | 67 | 100 | 100 | 100 | 100 | 100 | 100 | 3.96 | – | – | – | –
CCn1c(C(=O)NC(c2cc(Cl)c(F)c(Cl)c2)C(F)(F)F)cc2cc(C(=O)NC3(C(N)=S)CC3)c(Cl)cc21 (centres unmarked) [I-02] | 100 | 100 | 100 | 100 | 100 | 100 | 100 | 100 | 100 | 4.04 | – | – | – | –
CCn1c(C(=O)NC(c2cc(Cl)c(F)c(Cl)c2F)C(F)(F)F)cc2cc(C(=O)NC3(C(N)=S)CC3)c(Cl)cc21 (single isomer, unassigned) [I-17] | 90 | 100 | – | – | 80 | 100 | 100 | 100 | 100 | 4.27; | – | – | – | –
CCn1c(C(=O)NC(c2cc(Cl)c(F)c(Cl)c2F)C(F)(F)F)cc2cc(C(=O)NC3(C(N)=S)CC3)c(Cl)cc21 (single isomer, unassigned) [I-18] | 100 | 100 | 100 | 100 | 100 | 100 | 100 | 100 | 100 | 4.27; | – | – | – | –
CCn1c(C(=O)NC(c2cc(F)cc(C(F)(F)F)c2)C(F)(F)F)cc2cc(C(=O)NC3(C(N)=S)CC3)c(Cl)cc21 (centres unmarked) [I-10] | 100 | 100 | 100 | 100 | 100 | 100 | 100 | 100 | 100 | 3.81 | – | – | – | –
CCn1c(C(=O)NC(c2ccc(Cl)c(C(F)(F)F)c2)C(F)(F)F)cc2cc(C(=O)NC3(C(N)=S)CC3)c(C)cc21 (centres unmarked) [I-13] | 100 | 100 | – | – | 100 | 100 | 100 | 100 | 100 | 3.89 | – | – | – | –
CCn1c(C(=O)NC(c2cc(F)c(Cl)c(Cl)c2)C(F)(F)F)cc2cc(C(=O)NC3(C(N)=S)CC3)c(Cl)cc21 (centres unmarked) [I-09] | 100 | 100 | – | – | 100 | 100 | 100 | 100 | 100 | 4.02 | – | – | – | –
CCn1c(C(=O)NC(c2cc(Cl)c(Cl)c(Cl)c2)C(F)(F)F)cc2cc(C(=O)NC3(C(N)=S)CC3)c(Cl)cc21 (centres unmarked) [I-05] | 100 | 100 | – | – | 100 | 90 | 100 | 100 | 100 | 4.33 | – | – | – | –
CCn1c(C(=O)NC(c2cc(Cl)cc(C(F)(F)F)c2)C(F)(F)F)cc2cc(C(=O)NC3(C(N)=S)CC3)c(Cl)cc21 (centres unmarked) [I-22] | 100 | 100 | 100 | 100 | 100 | 100 | 100 | 100 | 100 | 4.11 | 100 | 100 | 50 | 100
